Assay: Urea dissolution time in water at 50/50 wt/wt urea/water concentration
Assay type: physicochemical
Conditions: for dissolution time faster than control test: versus control 12 minutes
Protocol: The next step of the method of the present invention comprises mixing the urea prills and the water so as to form a mixture. After the mixture is formed, the mixture of urea and water is then allowed to stand for an amount of time sufficient to allow the temperature of the mixture to reach a predetermined temperature. In a preferred embodiment, the predetermined temperature is between about 19° C. and 24° C., and more preferably, about 23° C. The amount of time required for the temperature of the mixture to reach the predetermined temperature depends upon the amount of mixture in mixing container 12. During this time period in which the mixture is allowed to stand, the temperature of the mixture is monitored with temperature sensor 20. When the temperature of the mixture reaches the predetermined temperature, mixing of the urea/water mixture is resumed and continues until the urea completely dissolves in the water. The time for urea dissolution is measured from the moment the mixing resumes to the point in time when the urea becomes completely dissolved in the water. The solution is outputted from mixing container 12 via outlet 14.
A series of tests were conducted in order to determine the urea dissolution time when various amounts of water were initially added to the urea and wherein additional amounts of water were subsequently added to attain the 50/50 wt/wt urea/water concentration. A control test was first conducted in order to obtain reference data. About 40 grams of urea prills were mixed with an equal amount of water, i.e. 40 grams (or milliliters). The mixture was not allowed to stand for any amount of time. Thus, the mixing step began as soon as 40 grams of urea and 40 grams of water were added to mixing container 12. The time for the urea to completely dissolve was about twelve (12) minutes and is indicated by numeral 100 in the curve of FIG. 2.
In the first test, about 40 grams of urea and 10 grams of water were deposited into mixing container 12. The mixture was then mixed or stirred, and allowed to stand until the temperature of the mixture reached about room temperature or about 23° C. Next, an amount of water necessary to achieve a urea/water concentration of 50/50 wt/wt was added to the mixture. Since the initial amount of water was 10 grams , 30 grams of water were added to the mixture to achieve the desired 50/50 wt/wt concentration. The urea and water were mixed again. The urea completely dissolved in eight (8) minutes after the 50/50 wt/wt urea/water concentration was achieved. This is indicated by numeral 102 on the curve in FIG. 2. The dissolution time was about 33% faster than the control test dissolution time of twelve (12) minutes.
In the next test, about 40 grams of urea and 15 grams of water were deposited into mixing container 12. The mixture was then mixed or stirred, and allowed to stand until the temperature of the mixture reached about room temperature or about 23° C. Next, an amount of water necessary to achieve a 50/50 wt/wt urea/water concentration was added to the mixture. Since the initial amount of water was 15 grams, 25 grams of water were added to the mixture to achieve the desired 50/50 wt/wt urea/water concentration. The urea and water were mixed again. The urea completely dissolved in seven (7) minutes after the 50/50 wt/wt urea/water concentration was achieved. This is indicated by numeral 104 on the curve in FIG. 2. The dissolution time was about 42% faster than the control test dissolution time of twelve (12) minutes.
In the next test, about 40 grams of urea and 20 grams of water were deposited into mixing container 12. The mixture was then mixed or stirred, and allowed to stand until the temperature of the mixture reached about room temperature or about 23° C. Next, an amount of water necessary to achieve a urea/water concentration of 50/50 wt/wt was added to the mixture. […]

dissolution time faster than control test (Test 1: 10 g water initially): about 33%
time for the urea to completely dissolve (Test 1: 40 g urea + 10 g water initially, stand until about 23° C., then 30 g water added to 50/50 wt/wt): 8 min
dissolution time faster than control test (Test 2: 15 g water initially): about 42%
time for the urea to completely dissolve (Test 2: 40 g urea + 15 g water initially, stand until about 23° C., then 25 g water added to 50/50 wt/wt): 7 min
dissolution time faster than control test (Test 3: 20 g water initially): about 58%
time for the urea to completely dissolve (Test 3: 40 g urea + 20 g water initially, stand until about 23° C., then 20 g water added to 50/50 wt/wt): 5 min
dissolution time faster than control test (Test 4: 25 g water initially): about 67%
time for the urea to completely dissolve (Test 4: 40 g urea + 25 g water initially, stand until about 23° C., then 15 g water added to 50/50 wt/wt): 4 min
time for the urea to completely dissolve (Test 5: 40 g urea + 40 g water, mixed, stand until about 23° C., mixed again): 3 min
dissolution time faster than control test (Test 5: 40 g water initially): about 75%
time for the urea to completely dissolve (control test: 40 g urea prills + 40 g water, mixture not allowed to stand): ~12 min
Structure (SMILES): NC(N)=O [urea]

Source: patent publication US20040148991A1, “Method and apparatus for dissolving urea” (priority 2003, published 2004)
